# Measurements: US20040023994A1 (priority 2002, published 2004)
# Like-named read-outs stand apart in the source and are kept apart here. Marks after values point to notes of the source that are not given here.
# Key:
# [1] = tested on: A-498 cells; test: MTT cytotoxicity assay; format: cell-based, human
# Protocol: (§1) Preliminary studies examining the in vitro cytotoxicity of cis-AVTP and trans-AVTG as compared to the parent drugs, were carried out using the 3-[4,5-dimethylthiazol-2-yl]-2,5-diphenyl tetrazolium bromide (MTT) cytotoxicity assay.
# [2] = tested on: ACHN cells; test: MTT cytotoxicity assay; format: cell-based, human
# Protocol: as §1
# [3] = tested on: all the cell lines included in the screen; test: cells
# Protocol: cis-AVTP and trans-AVTG were tested in National Cancer Institute's (NCI) 60 cell lines derived from leukemia, melanoma, lung, kidney cancers. Most chemotherapeutic agents currently nd 6-TG, have been tested in this screen and a database he National Institutes of Health. The NCI assigned s-AVTP, and number NSC-722289 to trans-AVTG. tocol used for the cytotoxicity assessment in the NCI e from the National Institutes of Health. Briefly, tumor ma, lung, colon, brain, ovary, breast, prostate, and um containing 5% fetal bovine serum and 2 mM L-glutamine re plated in a 100 μL volume into 96 well microtiter 37° C. in humidified atmosphere supplemented with 5% ach cell line were fixed with trichloroacetic acid for f drug addition (Tz). The drugs, as 400-fold concentrated uted to twice the final maximum test concentration with entamicin. Additional four 10-fold dilutions were made us control. Aliquots (100 μl) of the drug solutions were 100 μl of medium, resulting in the required final drug the plates were incubated at 37° C. in humidified for additional 48 h. The assay was terminated by the w/v) trichloroacetic acid for adherent and suspension minutes at 4° C. The supernatant was discarded, the and air dried. A 100 μl aliquot of 0.4% (w/v) sulforhodamine B (SRB) solution in 1% acetic acid was added to each well, and the plates incubated for 10 minutes at room temperature. After staining, unbound dye was removed by washing five times with 1% acetic acid and the plates air dried. Bound stain was solubilized with 10 mM trizma base, and the absorbance read on a plate reader at a wavelength of 515 nm.
# By using time zero (Tz), control growth (C), and test growth in the presence of drug at the five concentration levels (Ti), the percentage growth was calculated at each of the drug concentration levels. Percentage growth inhibition was calculated as:
# [(Ti−Tz)/(C−Tz)]×100 for concentrations for which Ti>/=Tz
# [(Ti−Tz)/Tz]×100 for concentrations for which Ti<Tz.
# Three dose response parameters were calculated for each experimental agent. […] The TGI, the drug concentration resulting in total growth inhibition was calculated from Ti=Tz. The LC50 (the concentration of drug resulting in a 50% reduction in the measured protein at the end of the drug treatment as compared to that at the beginning) indicating a net loss of cells following treatment was calculated from [(Ti−Tz)/Tz]×100=−50. Values were calculated for each of these three parameters if the level of activity is reached; however, if the effect was not reached or was exceeded, the value for that parameter is expressed as greater or less than the maximum or minimum concentration tested.
# [4] = tested on: Breast cell lines
# [5] = tested on: Prostate cell lines
# [6] = tested on: Colon cell lines
# [7] = tested on: Renal cell lines
# [8] = tested on: Melanoma cell lines
# [9] = tested on: NSCL cell lines
# [10] = tested on: CNS cell lines
# [11] = tested on: Leukemia cell lines
# [12] = tested on: HCT-116; conditions: HCT-116, Colon, NCI database, cited from earlier work; for CC50: read-out: LC50 (the source's name)
# [13] = tested on: SNB-19; conditions: SNB-19, CNS, NCI database, cited from earlier work; for CC50: read-out: LC50 (the source's name)
# [14] = tested on: SR; conditions: Leukemia, NCI database, cited from earlier work; for CC50: read-out: LC50 (the source's name)
# [15] = tested on: Breast cell lines; test: cells; conditions: for GI50: read-out: median GI50; for CC50: read-out: median LC50
# [16] = tested on: Prostate cell lines; test: cells; conditions: for GI50: read-out: median GI50; for CC50: read-out: median LC50
# [17] = tested on: Colon cell lines; test: cells; conditions: for GI50: read-out: median GI50; for CC50: read-out: median LC50
# [18] = tested on: Renal cell lines; test: cells; conditions: for GI50: read-out: median GI50; for CC50: read-out: median LC50
# [19] = tested on: Melanoma cell lines; test: cells; conditions: for GI50: read-out: median GI50; for CC50: read-out: median LC50
# [20] = tested on: NSCL cell lines; test: cells; conditions: for GI50: read-out: median GI50; for CC50: read-out: median LC50
# [21] = tested on: CNS cell lines; test: cells; conditions: Homo sapiens; for GI50: read-out: median GI50; for CC50: read-out: median LC50
# [22] = tested on: Leukemia cell lines; test: cells; conditions: for CC50: read-out: median LC50
# [23] = tested on: Ovarian cell lines; test: NCI anticancer screen, by tissue type; conditions: for GI50: read-out: median GI50; for CC50: read-out: median LC50
# [24] = tested on: SR
# [25] = Homo sapiens, A498, A-498, 72 h incubation, MTT
# [26] = Homo sapiens, A498, A-498, 96 h drug incubation
# [27] = Homo sapiens, 48 h drug incubation
# [28] = Homo sapiens, 72 h incubation, MTT
# [29] = Homo sapiens, 96 h drug incubation
# [30] = all cell lines of the NCI screen
compound,measurement,setting,value
"Sc1ncnc2nc[nH]c12 [6-MP, 6-mercaptopurine]",IC50,[1]; [25],60.6 ± 25.5 µM
same,IC50,[1]; [26],14.9 ± 6.7 µM
same,IC50,[2]; [27],44.8 ± 5 µM
same,IC50,[2]; [28],6.3 ± 1.9 µM
same,IC50,[2]; [29],0.9 ± 0.3 µM
same,median TGI,[3]; [30],>100 µM
same,GI50,[3]; read-out: median GI50,3.97 µM
same,CC50,[3]; read-out: median LC50,> 100 µM
same,median TGI,[4],>100 µM
same,median TGI,[5],>100 µM
same,median TGI,[6],>100 µM
same,median TGI,[7],>100 µM
same,median TGI,[8],>100 µM
same,median TGI,[9],>100 µM
same,median TGI,[10],>100 µM
same,median TGI,[11]; Leukemia,>100 µM
same,TGI,[12],>100 µM
same,CC50,[12],> 100 µM
same,GI50,[13],> 100 µM
same,TGI,[13],>100 µM
same,CC50,[13],> 100 µM
same,CC50,[14],> 100 µM
same,GI50,[14],1.27 µM
same,TGI,[14],>100 µM
same,GI50,[15],9.42 µM
same,CC50,[15],> 100 µM
same,GI50,[16],2.77 µM
same,CC50,[16],> 100 µM
same,GI50,[17],4.53 µM
same,CC50,[17],> 100 µM
same,GI50,[18],4.33 µM
same,CC50,[18],> 100 µM
same,GI50,[19],5.04 µM
same,CC50,[19],> 100 µM
same,GI50,[20],3.74 µM
same,CC50,[20],> 100 µM
same,GI50,[21],6.64 µM
same,CC50,[21],> 100 µM
same,GI50,[22]; read-out: median GI50,1.39 µM
same,CC50,[22],> 100 µM
same,median TGI,[23]; Ovarian,>100 µM
same,GI50,[23],4.77 µM
same,CC50,[23],> 100 µM
"CC(=O)C=CSc1nc(N)nc2nc[nH]c12 [trans-AVTG, 6-(2-acetylvinylthio) guanine]",IC50,"[1]; A-498, 72 h incubation, MTT",9.7 ± 2 µM
same,IC50,"[2]; 72 h incubation, MTT",4.1 ± 0.4 µM
same,median TGI,[3]; [30],12.9 µM
same,GI50,"[3]; read-out: median GI50, all cell lines of the NCI screen",0.98 µM
same,CC50,"[3]; read-out: median LC50, all cell lines of the NCI screen",76.2 µM
same,median TGI,[4],11.6 µM
same,GI50,[4]; read-out: median GI50,0.97 µM
same,CC50,[4]; read-out: median LC50,88.1 µM
same,median TGI,[5],19.7 µM
same,GI50,[5]; read-out: median GI50,3.96 µM
same,CC50,[5]; read-out: median LC50,62.5 µM
same,median TGI,[6],9.50 µM
same,GI50,[6]; read-out: median GI50,1.43 µM
same,CC50,[6]; read-out: median LC50,62.6 µM
same,median TGI,[7],14.3 µM
same,GI50,[7]; read-out: median GI50,0.98 µM
same,CC50,[7]; read-out: median LC50,52.8 µM
same,median TGI,[8],10.1 µM
same,GI50,[8]; read-out: median GI50,0.73 µM
same,CC50,[8]; read-out: median LC50,53.1 µM
same,median TGI,[9],19.4 µM
same,GI50,[9]; read-out: median GI50,2.52 µM
same,CC50,[9]; read-out: median LC50,61.5 µM
same,median TGI,[10],32.4 µM
same,GI50,[10]; read-out: median GI50,3.68 µM
same,CC50,[10]; read-out: median LC50,> 100 µM
same,median TGI,[11]; Leukemia,13.4 µM
same,GI50,"[11]; read-out: median GI50, Leukemia",0.37 µM
same,CC50,"[11]; read-out: median LC50, Leukemia",> 100 µM
same,GI50,"[24]; Leukemia, 48 h",0.09 µM
same,TGI,"[24]; Leukemia, 48 h",10.2 µM
same,CC50,"[24]; read-out: LC50, Leukemia, 48 h",> 100 µM
same,median TGI,[23]; Ovarian,3.41 µM
same,GI50,[23]; Ovarian,0.39 µM
same,CC50,[23]; Ovarian,51.4 µM
"Nc1nc2nc[nH]c2c(=S)[nH]1 [6-TG, 6-thioguanine]",IC50,[1]; [25],6.9 ± 4.1 µM
same,IC50,[2]; [28],2.5 ± 0.8 µM
same,median TGI,[3]; [30],41.3 µM
same,GI50,[3]; read-out: median GI50,1.04 µM
same,CC50,[3]; read-out: median LC50,> 100 µM
same,median TGI,[4],67.8^# μM
same,median TGI,[5],>100 µM
same,median TGI,[6],41.2 µM
same,median TGI,[7],89.2^# μM
same,median TGI,[8],15.3 µM
same,median TGI,[9],24.0 µM
same,median TGI,[10],>100 µM
same,median TGI,[11]; Leukemia,19.4 µM
same,GI50,[12],0.53 µM
same,TGI,[12],16.2 µM
same,CC50,[12],> 100 µM
same,GI50,[13],78.5 µM
same,TGI,[13],>100 µM
same,CC50,[13],> 100 µM
same,CC50,[14],> 100 µM
same,GI50,[14],0.19 µM
same,TGI,[14],17.9 µM
same,GI50,[15],1.48 µM
same,CC50,[15],> 100 µM
same,GI50,[16],1.27 µM
same,CC50,[16],> 100 µM
same,GI50,[17],1.32 µM
same,CC50,[17],> 100 µM
same,GI50,[18],1.14 µM
same,CC50,[18],> 100 µM
same,GI50,[19],1.13 µM
same,CC50,[19],> 100 µM
same,GI50,[20],0.91 µM
same,CC50,[20],> 100 µM
same,GI50,[21],1.28 µM
same,CC50,[21],> 100 µM
same,GI50,[22]; read-out: median GI50,0.33 µM
same,CC50,[22],> 100 µM
same,median TGI,[23]; Ovarian,53.8 µM
same,GI50,[23],0.7 µM
same,CC50,[23],> 100 µM
"CC(=O)C=CSc1ncnc2nc[nH]c12 [cis-AVTP, 6-(2-acetylvinylthio) purine]",IC50,"[1]; Homo sapiens, A498, A-498, 24 h drug incubation",107 ± 14.7 µM
same,IC50,"[1]; Homo sapiens, A498, A-498, 48 h drug incubation",24.6 ± 4 µM
same,IC50,[1]; [25],8 ± 1.2 µM
same,IC50,[1]; [26],5.5 ± 0.9 µM
same,IC50,"[2]; Homo sapiens, 24 h drug incubation",58.2 ± 1.7 µM
same,IC50,[2]; [27],8.7 ± 0.9 µM
same,IC50,[2]; [28],3.7 ± 0.7 µM
same,IC50,[2]; [29],3.5 ± 0.4 µM
same,GI50,[3],< 2 µM
same,median TGI,[3]; [30],4.56 µM
same,CC50,[3]; read-out: LC50,< 15 µM
same,GI50,[3]; read-out: median GI50,0.6 µM
same,CC50,[3]; read-out: median LC50,38.6 µM
same,median TGI,[4],3.98 µM
same,median TGI,[5],7.09 µM
same,median TGI,[6],4.42 µM
same,median TGI,[7],2.67 µM
same,median TGI,[8],3.24 µM
same,median TGI,[9],12.2 µM
same,median TGI,[10],10.7 µM
same,median TGI,[11]; Leukemia,52.5^# μM
same,TGI,"[11]; leukemia cell lines CCRF-CEM, HL-60(TB), and RPMI-8226",< 5 µM
same,GI50,[15],0.55 µM
same,CC50,[15],> 100 µM
same,GI50,[16],1.69 µM
same,CC50,[16],54.8 µM
same,GI50,[17],1.13 µM
same,CC50,[17],25.3 µM
same,GI50,[18],0.49 µM
same,CC50,[18],10.7 µM
same,GI50,[19],0.48 µM
same,CC50,[19],9.58 µM
same,GI50,[20],1.59 µM
same,CC50,[20],53.7 µM
same,GI50,[21],1.69 µM
same,CC50,[21],52.7 µM
same,GI50,[22],< 0.5 µM
same,GI50,[22]; read-out: median GI50,0.19 µM
same,CC50,[22],> 100 µM
same,GI50,"[24]; Homo sapiens, 48 h",0.17 µM
same,CC50,"[24]; Homo sapiens, 48 h, read-out: LC50",> 100 µM
same,TGI,"[24]; Leukemia, 48 h",>100 µM
same,median TGI,[23]; Ovarian,4.55 µM
same,GI50,[23],0.91 µM
same,CC50,[23],27.7 µM
